This is an account of results in ChEMBL document CHEMBL4364353, “Lysophosphatidic Acid Receptor 1 Antagonists for the Treatment of Fibrosis” (ACS Med Chem Lett, 2019).

As a reminder, the IC50 is the concentration that gives 50% inhibition.

The target in the assay is Lysophosphatidic acid receptor 1 (Homo sapiens, UniProt Q92633). Kind of assay: Antagonist activity at human LPA1 expressed in CHO cells assessed as reduction in LPA-induced calcium influx incubated for 20 mins. In kind it is functional, cell-based.
Chain of Lysophosphatidic acid receptor 1 (Q92633 whole entry): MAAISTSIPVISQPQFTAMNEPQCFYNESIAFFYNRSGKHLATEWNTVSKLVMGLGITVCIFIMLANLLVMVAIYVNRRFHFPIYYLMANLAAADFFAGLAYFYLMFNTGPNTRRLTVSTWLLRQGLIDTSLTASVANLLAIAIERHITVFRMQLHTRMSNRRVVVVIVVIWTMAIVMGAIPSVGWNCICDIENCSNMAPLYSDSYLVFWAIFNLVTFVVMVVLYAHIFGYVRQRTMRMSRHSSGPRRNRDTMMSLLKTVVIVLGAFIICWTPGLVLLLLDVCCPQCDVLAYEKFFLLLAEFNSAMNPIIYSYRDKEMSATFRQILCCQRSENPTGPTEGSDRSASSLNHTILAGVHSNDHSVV

With `Cc1noc(-c2ccc(O[C@H]3CCC[C@H](C(=O)O)C3)cc2)c1CNC(=O)OCc1ccc(Cl)cc1`, the IC50 amounted to 227 nM.
